# Measurements reported in US11732008B2, “Preparation of functional homocysteine residues in polypeptides and peptides” (The Regents of the University of California, priority 2016, dated 2023).
# Columns and labels:
# [1] = Chain conformation / helicity by circular dichroism (CD) spectroscopy; format: physicochemical; conditions: 20° C.
# Procedure: For M60 (SEQ ID NO: 1), no data are presented below 204 nm due to solvent absorption that prohibits data collection. 31 found to be 85% α-helical. All CD spectra recorded at 0.5 mg/ml, 20° C. Figure discloses “C^H60” as SEQ ID NO: 2.
# (§1) FIGS. 7A and 7B show CD Spectra and heating curves of exemplary OEG-Hcy derivatives.
# Heating or cooling rate: 1° C./min, transmittance recorded at 500 nm. […] (label: 20° C.*).
# All data were recorded in H2O at 0.5 mg/mL, 20° C. For 5b no data were recorded below 198 nm due to sulfoxide absorption.
# [2] = Solubility in water
# [3] = Cloud point temperature (Tcp) by transmittance while heating; format: physicochemical; conditions: for Tcp (° C.): polymer 3.0 mg/mL in H2O, heated 1° C./min, temperature of 50% transmittance at 500 nm, —a = no Tcp detected, fully soluble 20 to 80° C., NA^b = insoluble in H2O down to 5° C.
# Procedure: as §1
# The incorporation of precise side-chain structural modifications, enabled systematic study of the effects of different functionalities on the properties of the materials. […] Cloud point temperatures (Tcp) were determined at 50% transmittance by monitoring solution transmittance as a function of temperature, and were used to approximate the equilibrium LCST values. Since chain length variation and polymer concentration are well known to affect Tcp values, all samples were identical in length, being prepared from the same stock of M60 (SEQ ID NO: 1).
substance,measurement,setting,value
"Poly(L-methionine)60 [Sample M60, reference compound]",chain conformation,"[1]; CD in THF, 0.5 mg/ml",helical
same,water solubility (in words),[2],water-insoluble
"Poly(S-(2-(((2-methoxyethoxy)carbonyl)oxy)-4,7,10,13-tetraoxatetradecyl)-L-homocysteine) [Sample 3b]",Tcp (° C.),[3],41 °C
"Poly(S-(2-acetoxy-4,7,10,13-tetraoxatetradecyl)-L-homocysteine) [Sample 3a]",Tcp (° C.),[3],39 °C
"Poly(S-(2-hydroxy-4,7-dioxaoctyl)-L-homocysteine sulfone) [Sample 5b]","Tcp / LCST in water, present or not",[3],neither polymer has a LCST
same,chain conformation,"[1]; CD in water, 0.5 mg/mL",α-helical conformation
same,α-helical (%),"[1]; CD in water, 0.5 mg/mL",86%
same,water solubility (in words),[2],good solubility
"Poly(S-(2-hydroxy-4,7-dioxaoctyl)-L-homocysteine sulfoxide) [Sample 5a]","Tcp / LCST in water, present or not",[3],neither polymer has a LCST
same,chain conformation,"[1]; CD in water, 0.5 mg/mL",disordered conformation
same,water solubility (in words),[2],good solubility
Poly(S-(3-(2-acetoxyethoxy)-2-hydroxypropyl)-L-homocysteine) [Sample 2c],water solubility (in words),[2],water insoluble
Poly(S-(3-(2-hydroxyethoxy)-2-hydroxypropyl)-L-homocysteine) [Sample 2a],water solubility (in words),[2],fully water soluble
Poly(S-(3-(2-methoxyethoxy)-2-hydroxypropyl)-DL-homocysteine) [rac-2b],water solubility (in words),[2],fully water soluble
